From paper PMC11943946, “Anti-Neuroinflammatory Eremophilane Sesquiterpenoids from Marine-Derived Fungus Phoma sp. DXH009” (Marine Drugs, 2025)

Legend:
[1] = test system: LPS-stimulated microglia BV2 cells; assay: Cellular NO production in LPS-stimulated BV2 microglia; type: cell-based; details: for NO inhibition (SAR statement) / reduction in NO content: 20 μM; for NO inhibition (SAR statement): relative to analogues with intact C-6–C-7 / C-11–C-12 motifs; for reduction in NO content: vs LPS control cells
Protocol: (§1) The cellular NO levels were determined using a Nitric Oxide Assay Kit with DAF-FM DA (Beyotime, Nantong, China). A total of 5000 cells were planted in 96-well plates and maintained for 24 h. Then, they were induced with 1 μg/mL lipopolysaccharide (LPS) in the presence or absence of compounds at a final concentration of 20 μM for 24 h. Untreated wells were used as control. Then, supernatant of the culture medium was investigated with a Nitric Oxide Assay Kit with DAF-FM DA (Beyotime, S0020S) per the manufacturer’s instruction. Cells were stained with 2 µM hochest 33,342 at room temperature for 10 min, then cell numbers were auto-counted using the high-content screening system. The cell number in the LPS control group was set as 100%, and the relative cell survival ratios were calculated.

[2] = BV2 cell viability / proliferation (CCK-8, cell count); type: cell-based; details: mouse; BV2 cells, 24 h; read-out: IC50 against BV2 cell proliferation (cytotoxicity)
Protocol: as §1
(§2) BV2 microglial cells were seeded into 96-well plates at a density of 1 × 10^4 cells/well and allowed to adhere for 24 h. Cells were then exposed to different concentrations (20 μM for 1–9; 0, 1, 5, 10, 20, 50, 100 μM for 5) of the test compounds (1–9) in triplicate, with DMSO concentrations normalized across all treatment groups. After 24 h incubation, 10 μL CCK-8 reagent (Beyotime Biotechnology, Nantong, China) was added to each well, followed by 30 min incubation at 37 °C. Absorbance at 450 nm was quantified using a BioTek microplate reader (BioTek, Winooski, VT, USA), with cell viability calculated relative to vehicle-treated controls.

[3] = test system: LPS-treated BV2 microglia cells; assay: Microglia polarization markers ARG 1 and iNOS (immunofluorescence, immunoblot); type: cell-based; details: 2.5, 5, 10 μM, LPS 0.5 μg/mL, 24 h
Protocol: (§3) Cells or tissues were lysed with RIPA lysis buffer containing protease and phosphatase inhibitor cocktail and total protein was extracted and quantified by using a protein determination kit (Thermo Fisher Scientific, Cat#23227, Beijing, China). Protein samples were prepared by centrifugation at the speed of 12,000× g for 30 min at 4 °C; the supernatant was boiled at 95 °C for 10 min and then subjected to SDS-PAGE. An amount of 15 µg of total protein was separated by electrophoresis in a 10% SDS-polyacrylamide gel and transferred to a PVDF membrane (Thermo Fisher Scientific, Cat#88520, Beijing, China). After blocking, the full membranes were cropped according to the molecular weight of examined proteins and incubated with antibodies at 4 °C overnight. […] The average protein levels of control group cells or control mice from each independent experiment or mice were set as 1, and relative changes were calculated.
For the immunofluorescence assay, cells were fixed with pre-cold ethanol at –20 °C, then blocked and incubated with anti-iNOS (Abcam, ab178945) and mouse anti-ARG 1 (Proteintech, 66129) at 4 °C overnight. […] Fluorescence images were acquired using a confocal microscope (Olympus, Tokyo, Japan).

NF-κB p65 = NF-κB p65 signaling pathway (Western blot); type: cell-based; details: 2.5, 5, 10 μM, LPS-treated BV2 cells
Protocol: as §3, with “overnight. The used antibodies were listed as follows: anti-iNOS (Abcam, ab178945, Cambridge, UK), anti-COX2 (Affinity, AF7003, Changzhou, China), anti-actin (Affinity Biosciences, AF7018, Changzhou, China), anti-ARG1 (Proteintech, 66129, Wuhan, China), anti-IL-1β (Proteintech, 26048, Wuhan, China), anti-GAPDH (Bioss, bs-41373R, Beijing, China), anti-IL-6 (Affinity, DF6087, Changzhou, China), anti-TNFα (Affinity, AF7014, Changzhou, China), anti-IBA1 (Affinity, DF6442, Changzhou, China).” for “overnight.”

[4] = test system: LPS-treated BV2 microglia cells; assay: Inflammatory markers in LPS-treated microglia cells (Western blot); type: cell-based; details: 2.5, 5, 10 μM
Protocol: as §3, with “overnight. The used antibodies were listed as follows: anti-iNOS (Abcam, ab178945, Cambridge, UK), anti-COX2 (Affinity, AF7003, Changzhou, China), anti-actin (Affinity Biosciences, AF7018, Changzhou, China), anti-ARG1 (Proteintech, 66129, Wuhan, China), anti-IL-1β (Proteintech, 26048, Wuhan, China), anti-GAPDH (Bioss, bs-41373R, Beijing, China), anti-IL-6 (Affinity, DF6087, Changzhou, China), anti-TNFα (Affinity, AF7014, Changzhou, China), anti-IBA1 (Affinity, DF6442, Changzhou, China).” for “overnight.”

LPS-treated mice = assay: LPS-induced neuroinflammation mouse model (cortex and hippocampus); type: in vivo; details: intraperitoneal; for expression levels of IBA1 in cortex / inflammatory markers iNOS, COX2, IL-1β, IL-6 in cortex (mRNA and protein) / protein level of ARG 1 in cortex: 5 at 10, 20, 40 mg/kg or Dex 15 mg/kg
Protocol: Cells or tissues were lysed with RIPA lysis buffer containing protease and phosphatase inhibitor cocktail and total protein was extracted and quantified by using a protein determination kit (Thermo Fisher Scientific, Cat#23227, Beijing, China). Protein samples were prepared by centrifugation at the speed of 12,000× g for 30 min at 4 °C; the supernatant was boiled at 95 °C for 10 min and then subjected to SDS-PAGE. An amount of 15 µg of total protein was separated by electrophoresis in a 10% SDS-polyacrylamide gel and transferred to a PVDF membrane (Thermo Fisher Scientific, Cat#88520, Beijing, China). After blocking, the full membranes were cropped according to the molecular weight of examined proteins and incubated with antibodies at 4 °C overnight. The used antibodies were listed as follows: anti-iNOS (Abcam, ab178945, Cambridge, UK), anti-COX2 (Affinity, AF7003, Changzhou, China), anti-actin (Affinity Biosciences, AF7018, Changzhou, China), anti-ARG1 (Proteintech, 66129, Wuhan, China), anti-IL-1β (Proteintech, 26048, Wuhan, China), anti-GAPDH (Bioss, bs-41373R, Beijing, China), anti-IL-6 (Affinity, DF6087, Changzhou, China), anti-TNFα (Affinity, AF7014, Changzhou, China), anti-IBA1 (Affinity, DF6442, Changzhou, China). The membranes were washed to remove unbound antibodies and then incubated with HRP-conjugated secondary antibodies at room temperature for 45 min. Protein bands were visualized one by one with an ECL kit (Millipore, Cat#6-201BP, Beijing, China). The uncropped immunoblot data were uploaded as a Supplementary File. Densitometry analysis was performed using Image J Software, Version 1.54p (Rawak Software Inc., Stuttgart, Germany) relative to the loading control, β-actin; GAPDH; or tubulin. The average protein levels of control group cells or control mice from each independent experiment or mice were set as 1, and relative changes were calculated.
Male, 4-week-old C57BL/6J mice were obtained from Peking SiPeiFu Biotechnology Co., Ltd. (Beijing, China), with quality certificate number No.110324241107423512. After acclimation, mice were weighted and divided randomly into 6 groups, including control, LPS control mice, LPS + dexamethasone (Dex, 15 mg/kg), and LPS + HN-005 (10, 20, 40 mg/kg). Mice were intraperitoneally injected with dexamethasone or compound 5 for 2 days, while the control and LPS control group was intraperitoneally injected with an identical volume of 200 μL 0.9% saline. A total of 6 mg/kg LPS was intraperitoneally injected on the second day beyond the control group. After treatment, the mice were weighed and euthanized for brain anatomy.
Mice were anesthetized and their chest dissected to expose the heart sufficiently. The infusion needle penetrated the ventriculus sinister by about 0.5 cm and perfused it with 40 mL sterile PBS buffer until the liver turned white. Then, the prefrontal cortex and hippocampus were separated and preserved. For the immunochemistry assay, the cortex and hippocampus were fixed at 4% PFA at room temperature for 2–4 days. The fixed brain was embedded into paraffin and sectioned at 5 μm in the coronal plane using a sliding microtone (Leica, CM1950, Weztlar, Germany), then blocked with 5% goat serum TBS buffer at room temperature for one hour. After blocking, tissue slides were incubated with the first antibody against IBA1 (Affinity, DF6442, Changzhou, China) at 4 °C for 16 h, then rinsed with TBST three times and incubated with Alex flour 555 conjugated goat anti-rabbit secondary antibody (1:500) and DAPI (1:1000) at 4 °C overnight. A section incubated only with the secondary antibody was used as a negative control. For HE staining, the section was stained with an H&E staining kit (Servicebio, G1076, Wuhan, China) per the manufacturer’s instruction. Fluorescence images were acquired using a confocal microscope (Olympus, Tokyo, Japan). […]

[5] = test system: Amaranthus hypochondriacus; parameters: method as in PMID 25603174; details: read-out: IC50 herbicidal effect (radicle growth); cited from earlier work
Echinochloa crus-galli = test system: Echinochloa crus-galli; parameters: method as in PMID 25603174; details: read-out: IC50 herbicidal effect (radicle growth); cited from earlier work
Lactuca sativa = test system: Lactuca sativa; parameters: method as in doi:10.1584/jpestics.14.223; details: 250 ppm; cited from earlier work
Ehrlich carcinoma cells = test system: Ehrlich carcinoma cells; parameters: method as in doi:10.1007/s10600-014-0836-9; details: cited from earlier work
Vero cells = test system: Vero cells; parameters: method as in PMID 25734623; details: noncancerous Vero cells; read-out: IC50 toxicity; cited from earlier work
BV2 microglial cells = assay: BV2 cell viability / proliferation (CCK-8, cell count); type: cell-based; details: 20 µM
Protocol: as §1, §2

APP/PS1 transgenic mice = test system: APP/PS1 transgenic mice; parameters: method as in PMID 39004599, PMID 25686105; details: cited from earlier work
[6] = test system: early-stage PD participants; parameters: method as in PMID 38504306; details: Phase II trial NCT04542915; cited from earlier work
NF-κB signaling = test system: NF-κB signaling; parameters: method as in PMID 38616356, PMID 31590042; details: BV2 microglia; read-out: IC50 suppressing NF-κB signaling; cited from earlier work
AD mice = test system: AD mice; parameters: method as in PMID 38616356, PMID 31590042; details: relative to untreated AD mice; cited from earlier work
[7] = test system: LPS-activated BV-2 microglia; parameters: method as in PMID 34605647; details: read-out: IC50 suppressing nitric oxide production; cited from earlier work

## CC1C(O)CCC2=CC(=O)C(C(C)(C)O)=CC21C (stereo not shown) [Compound 2, Phomenone D]
[1]
  NO inhibition (SAR statement): high reduction in NO inhibition

## C=C(C)[C@]1(O)C[C@@]2(C)C(=CC1=O)CC[C@@H](O)[C@@H]2C [Compound 3, Hydroxypetasol]
[1]
  NO inhibition (SAR statement): high reduction in NO inhibition

## C=C(C)[C@@]12O[C@@H]1[C@@]1(C)C(=C[C@@H]2O)CC[C@@H](O)[C@@H]1C [Compound 5, dihydrosporogen AO-1]
[1]; 24 h
  reduction in NO content: 78%
[1]; Mus musculus, BV-2, LPS-treated BV2 microglial cells, 24 h, read-out: EC50 in decreasing cellular NO production
  EC50: 3.11 µM
[1]; cytotoxicity IC50 vs NO EC50, BV2 cells
  selectivity index (SI): 12.2
[2]
  IC50: 38 µM
[3]
  iNOS and ARG 1 protein levels: dose-dependently reversed iNOS elevations and ARG 1
  ratio of ARG 1 to iNOS: corrected the decreased ratio of ARG 1 to iNOS
NF-κB p65
  activation of NF-κB axis (phosphorylated NF-κB p65): dose-dependently reversed the activation of the NF-κB axis
  total level of NF-κB p65: no major change
[4]
  level of inflammatory markers IBA1, COX-2, TNF-α, IL-1β, IL-6: efficiently reversed the increases in the level of inflammatory markers
LPS-treated mice
  expression levels of IBA1 in cortex: markedly decreased the expression levels of IBA1
  inflammatory markers iNOS, COX2, IL-1β, IL-6 in cortex (mRNA and protein): efficiently suppressed the activation of these inflammatory markers
  protein level of ARG 1 in cortex: dose-dependently increased the protein level of ARG 1
LPS-treated mice; 10, 20, 40 mg/kg
  neuroinflammation in hippocampus tissue: inhibits neuroinflammation in the hippocampus tissue
[5]
  IC50: 170 µM
Echinochloa crus-galli
  IC50: 300 µM
Lactuca sativa
  inhibition (radicle growth): 70%
Ehrlich carcinoma cells
  ED50 cytotoxicity: 400 µM
Vero cells
  IC50: 24000 µM

## C=C(C)[C@@H]1C[C@@]2(C)C(=CC1=O)CC[C@@H](O)[C@@H]2C [Compound 8, petasol]
BV2 microglial cells
  proliferation inhibition (cytotoxicity): 35–85%

## C=C(C)C1=C[C@@]2(C)C(=CC1=O)CC[C@@H](O)[C@@H]2C [Compound 9, 6-dehydropetasol]
BV2 microglial cells
  proliferation inhibition (cytotoxicity): 35–85%

## C[C@@H]1C[C@H]2[C@@H]3CCC4=CC(=O)C=C[C@]4(C)[C@@]3(F)[C@@H](O)C[C@]2(C)[C@@]1(O)C(=O)CO [Dex, dexamethasone, reference compound]
[1]; 24 h
  reduction in NO content: 77%
LPS-treated mice
  expression levels of IBA1 in cortex: markedly decreased the expression levels of IBA1
  inflammatory markers iNOS, COX2, IL-1β, IL-6 in cortex (mRNA and protein): efficiently suppressed the activation of these inflammatory markers
  protein level of ARG 1 in cortex: no induction effect was observed

## CC(C)(O)c1coc(S(=O)(=O)NC(=O)Nc2c3c(cc4c2CCC4)CCC3)c1 [MCC950]
APP/PS1 transgenic mice
  attenuation of hippocampal IL-1β production: 68.5%

## Oc1ccc(/C=C/c2cc(O)cc(O)c2)cc1 [Resveratrol]
[6]
  reduction in CSF TNF-α levels: 31.6%

## COc1cc(/C=C/C(=O)CC(=O)/C=C/c2ccc(O)c(OC)c2)ccc1O [curcumin]
NF-κB signaling
  IC50: 4.7 µM
AD mice
  improvement in radial arm maze errors: 37.2%

## C=C1CO[C@@]2(O)CC3=CC(=O)C(O)=C(C)[C@@]3(C)C[C@@]12O [septoreremophilane F]
[7]
  IC50: 12 ± 0.32 µM
